Assay results reported in ChEMBL document CHEMBL1146505, “Flavonoid glycosides from Adina racemosa and their inhibitory activities on eukaryotic protein synthesis” (2004).
Active and inactive are the calls of the source. The calls are words filed in the database; no cut-off is given here.

Key:
Type in all cases: functional
[1] = (§1) Inhibition of protein synthesis in mouse Krebs cells overexpressing (CAG)33/FF/HCV/Ren mRNA reporter transcript assessed as firefly luciferase production at 100 uM relative to control
[2] = (§2) Inhibition of protein synthesis in mouse Krebs cells overexpressing (CAG)33/FF/HCV/Ren mRNA reporter transcript assessed as renilla luciferase production at 100 uM relative to control
[3] = Inhibition of translation in mouse Krebs cells overexpressing (CAG)33/FF/HCV/Ren mRNA reporter transcript assessed as luciferase production at 100 uM relative to control
[4] = test system: Krebs; assay: as §1
[5] = test system: Krebs; assay: as §2
[6] = species: Oryctolagus cuniculus; assay: Inhibition of translation initiation in rabbit reticulocyte lysates with [32P]CAT mRNA assessed as 80S initiation complex formation at 50 uM by ribosome binding assay in presence of cycloheximide
[7] = test system: Escherichia coli; assay: Inhibition of bacterial protein synthesis in Escherichia coli S30 overexpressing pBEST/luc and [35S]met assessed as [35S]met incorporation

Compound | fold change (FC) [1] | fold change (FC) [2] | fold change (FC) [3] | Activity [4] | Activity [5] | Activity [6] | Activity [7]
C[C@@H]1O[C@@H](OC[C@H]2O[C@@H](Oc3c(-c4ccc(O)cc4)oc4cc(O)cc(O)c4c3=O)[C@H](O)[C@@H](O)[C@H]2OC(=O)/C=C/c2ccccc2)[C@H](O)[C@H](O)[C@H]1O | 2 | 2 |  |  |  |  | 
C[C@@H]1O[C@@H](OC[C@H]2O[C@@H](Oc3c(-c4ccc(O)c(O)c4)oc4cc(O)cc(O)c4c3=O)[C@H](O)[C@@H](O)[C@H]2OC(=O)/C=C/c2ccc(O)cc2)[C@H](O)[C@H](O)[C@H]1O | 2 | 2 |  |  |  |  | 
C[C@@H]1O[C@@H](OC[C@H]2O[C@@H](Oc3c(-c4ccc(O)c(O)c4)oc4cc(O)cc(O)c4c3=O)[C@H](O[C@@H]3O[C@@H](C)[C@H](OC(=O)/C=C/c4ccc(O)cc4)[C@@H](O)[C@H]3O)[C@@H](OC(=O)/C=C/c3ccc(O)cc3)[C@H]2O)[C@H](O)[C@H](O)[C@H]1O |  |  | 10 | Active | Active |  | 
C[C@@H]1O[C@@H](OC[C@H]2O[C@@H](Oc3c(-c4ccc(O)c(O)c4)oc4cc(O)cc(O)c4c3=O)[C@H](O[C@@H]3O[C@@H](C)[C@H](OC(=O)/C=C/c4ccc(O)cc4)[C@@H](O)[C@H]3O)[C@@H](O)[C@H]2OC(=O)/C=C/c2ccc(O)cc2)[C@H](O)[C@H](O)[C@H]1O |  |  | 5 | Active | Active |  | 
C[C@@H]1O[C@@H](OC[C@H]2O[C@@H](Oc3c(-c4ccc(O)c(O)c4)oc4cc(O)cc(O)c4c3=O)[C@H](O[C@@H]3O[C@@H](C)[C@H](OC(=O)/C=C/c4ccc(O)c(O)c4)[C@@H](O)[C@H]3O)[C@@H](OC(=O)/C=C/c3ccc(O)cc3)[C@H]2O)[C@H](O)[C@H](O)[C@H]1O |  |  | 10 | Active | Active | inactive | inactive
C[C@@H]1O[C@@H](OC[C@H]2O[C@@H](Oc3c(-c4ccc(O)cc4)oc4cc(O)cc(O)c4c3=O)[C@H](O[C@@H]3O[C@@H](C)[C@H](OC(=O)/C=C/c4ccc(O)cc4)[C@@H](O)[C@H]3O)[C@@H](O)[C@H]2OC(=O)/C=C/c2ccc(O)cc2)[C@H](O)[C@H](O)[C@H]1O |  |  | 5 | Active | Active |  | 
C[C@@H]1O[C@@H](OC[C@H]2O[C@@H](Oc3c(-c4ccc(O)c(O)c4)oc4cc(O)cc(O)c4c3=O)[C@H](O)[C@@H](OC(=O)/C=C/c3ccc(O)cc3)[C@H]2O)[C@H](O)[C@H](O)[C@H]1O | 2 | 2 |  |  |  |  | 
